Data published in patent US8080632B2, “Peptide mimics of melanocyte stimulating hormone” (The Feinstein Institute for Medical Research, priority 2005, dated 2011).

Key:
[1] = test system: Macrophage-like RAW cells; assay: Structure function: inhibition of LPS (4 ng/ml)-stimulated TNF release; assay type: cell-based, murine; conditions: full range of the dose-response curve
RAW cells = assay: Cyclic-AMP production in RAW cells; assay type: cell-based, murine; conditions: FIG. 8

| Substance | activity in suppressing TNF release relative to MECO-1 [1] | stimulation of cAMP production (RAW cells) |
| --- | --- | --- |
| EFG-2: C-terminus of human mitochondrial EF-G2: TLTSGSATFALELSTYQAMNPQDQNTLLNRRSGLT (listed as Homo sapiens) | as active as MECO-1 | – |
| adrenocorticotropic hormone (SYSMEHFRWGKPVGKKRRPVKVYPNGAEDESAEAFPLEF; mammalian melanocortin ACTH (1-39)) [obtained from Bachem Bioscience] | – | dose-dependent fashion |
